Literature values in patent EP1096056A1, “Wrinkle resistant composition” (THE PROCTER & GAMBLE COMPANY, priority 1999, dated 2001).
Structures can show the parent of a compound that is named as a salt.

Columns and labels:
[1] = in water

SMILES | stability over a wide pH range | water solubility [1]
Cn1sc2c(c1=O)CCC2 [Promexal, 2-methyl-4,5-trimethylene-4-isothiazolin-3-one] | 4-12 | 
O=c1[nH]sc2ccccc12 [Proxel, 1,2-benzisothiazolin-3-one] | 4-12 | 
[H]/N=C(\N/C(=N/[H])NCCCCCCNC(=N)NC(=N)Nc1ccc(Cl)cc1)Nc1ccc(Cl)cc1 [diacetate salt, 1,1'-hexamethylene bis(5-(p-chlorophenyl)biguanide)] |  | about 1.8%
[H]/N=C(\N/C(=N/[H])NCCCCCCNC(=N)NC(=N)Nc1ccc(Cl)cc1)Nc1ccc(Cl)cc1 [digluconate salt, 1,1'-hexamethylene bis(5-(p-chlorophenyl)biguanide)] |  | about 70%
[Na+].[O-][n+]1ccccc1[S-] [sodium pyrithione] |  | about 50%
